The values that follow come from patent US5145844A, “Methods of using hydroxy-, alkoxy- and benzyloxy-substituted phospholipids to treat phospholipase A2 -mediated conditions and to alleviate pain” (Hoechst-Roussel Pharmaceuticals Incorporated, priority 1991, dated 1992).

The structures appear in SMILES notation. Where a name gives a salt, the structure may show the parent alone.

This assay has as its system phenyl-para-quinone induced writhing. The experiment in a line: phenyl-para-quinone writhing assay in mice (Analgesic PQW). The class given is in vivo. The note with it: 20 mg/kg, s.c. From the text: The compounds of the present invention are also useful as analgesic agents due to their ability to alleviate pain in mammals. […] Exptl. Biol. Med., 95, 729 (1957)]. Presented in Table 2 is the analgesic effect of some of the compounds of the invention expressed as either the subcutaneous dose at which 50% of the phenyl-para-quinone induced writhing is inhibited in the animals, i.e., the ED50 value, or at the % decrease in writhing at a give dose.
For orientation: In writhing tests, fewer writhes than in controls are read as antinociception.
Regarding `CCCCCCCCCC(CCCOP(=O)([O-])OCC[N+](C)(C)C)OCc1ccccc1` (stereo not shown) [4-Hydroxy-N,N,N-trimethyl-9-phenylmethoxy-3,5-dioxa-4-phosphaoctadecan-1-aminium, 4-oxide, hydroxide, inner salt monohydrate], the “Analgesic PQW % Inhibition of Writhing” value worked out at 83%. The value for `CCCCCCCCCCCCCCCC(CCCOP(=O)([O-])OCC[N+](C)(C)C)OCc1ccccc1` (stereo not shown) [4-Hydroxy-N,N,N-trimethyl-9-phenylmethoxy.3,5-dioxa-4-phosphatetracosan-1-aminium, 4-oxide, hydroxide, inner salt monohydrate] was 36%; that for `C[N+](C)(C)CCOP(=O)([O-])OCCCC(O)CCCCCCCCCOc1ccccc1` (stereo not shown) [4,9-Dihydroxy-N,N,N-trimethyl-3,5-dioxa-18-phenoxy-4-phosphaoctadecan-1-aminium, 4-oxide, hydroxide, inner salt dihydrate] was 48%. As for `CCCCCCCCCCCCCCCC(O)CCCOP(=O)([O-])OCC[N+]1(C)CCCC1` (stereo not shown) [4,9-Dihydroxy-N-methyl-3,5-dioxa-4-phosphatetetracosan-1-pyrrolidinium, 4-oxide, hydroxide, inner salt 3.5 hydrate], the figure is 62%.
